Assay results published in the NIST ThermoML archive (doi:10.1016/j.jct.2017.04.009).

Experiment: xn = mol fraction of the nth substance listed
Conditions: Liquid, pressure decay method, x1 = 0

In the case of `FC(F)C(F)(F)F` [pentafluoroethane] + CCCCCCn1cc[n+](C)c1.F[B-](F)(F)F, the binary diffusion coefficient (303.2 K, 151.8 kPa) was 6.3e-11 m2/s, the binary diffusion coefficient (313.2 K, 164 kPa) was 1.24e-10 m2/s and the binary diffusion coefficient (323.2 K, 169.7 kPa) was 2.16e-10 m2/s. For the same compound, the binary diffusion coefficient (333.2 K, 176.2 kPa) was 2.95e-10 m2/s and the binary diffusion coefficient (343.2 K, 172.3 kPa) was 3.66e-10 m2/s.
